Where two headings read alike, the source gives them in different places.
How the values were obtained:
[1] = tested on: 4T1 cells; experiment: 4T1 breast cancer syngeneic mouse model; format: in vivo, Balb/c mice; conditions: 4T1 model; IMG-321 20 mg/kg b.i.d. combined with gemcitabine 3 mg/kg once every 10 days
Protocol: Female Balb/c mice (5-6 weeks old) were purchased from Charles River Laboratories (Hollister, Calif.). Animals were housed and treated in accordance with Institutional Animal Care and Use Committee guidelines. For the generation of 4T1 breast cancer model, 1×10^5 4T1 cells were injected orthotopically into the mammary fat pad. For the generation of lung cancer model, 1×10^5 LLC cells were injected subcutaneously. For the generation of murine melanoma model, 1×10^5 B16-F10 cells were injected subcutaneously. Test compounds were administered by I.P. injection in a dose range of 10-100 mg/kg starting on study day 1 (7 days after tumor implantation). Control groups received vehicle (water) twice daily by I.P. injection. Tumor volume measured by digital caliper (length×width×width/2) and body weight were recorded three times per week. Animals were euthanized when tumors necrotized or volumes reached 2000 mm3.
One-way Anova, student's T test, and Mann-Whitney test performed by GraphPad5 PRISM software (GraphPad Software, Inco, San Diego, Calif., USA) were used according to different experimental conditions. P value<0.05 was considered statistically significant. Significance is indicated in the figures by asterisks *p<0.05, **p<0.01.
Female Balb/C mice (8 weeks old) were injected with 1×10^5 4T1 cells into the mammary fat pad. […] Tumor volume was measured by digital caliper (length×width×width/2). […]

[2] = biological target: T1, biotinylated human MIF / MIF receptor ectodomain (sCD74) (Homo sapiens, UniProt P14174); experiment: MIF-CD74 binding assay; conditions: FIGS. 9-12; read-out: pIC50 MIF-CD74 binding (converted)
T1 construct: made in house
T1 sequence (P14174 2-115 limits assumed): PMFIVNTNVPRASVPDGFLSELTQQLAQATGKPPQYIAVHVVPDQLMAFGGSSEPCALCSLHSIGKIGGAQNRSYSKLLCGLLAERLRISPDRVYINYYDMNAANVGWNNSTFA
Protocol: The assay measures the ability of a compound to inhibit the binding of MIF with its receptor CD74 in vitro. 96-well plates were coated with recombinant MIF receptor ectodomain (sCD74=CD7473-232), washed 4 times, and blocked with Superblock (Pierce Biotechnology) at 4° C. overnight. Test compounds, which were used at a top final assay concentration of 33.3 μM, diluted in assay medium with 1:3 dilutions to produce 10 point concentration responses, were pre-incubated with biotinylated human MIF (2 ng/μl) (Roche Applied Sciences) prepared recombinantly for 30 minutes at room temperature. The mixtures then were added to wells for overnight incubation at 4° C. The wells were washed 4 times and strepavidin-conjugated alkaline phosphatase (R&D Systems) was added for one hour incubation at room temperature. After additional washes, 60 μl/well of p-nitrophenyl phosphate (Sigma) substrate was added. Absorbance at 405 nm was plotted as percent A405 relative to wells containing biotinylated human MIF alone. Each plot represented at least three independently performed assays, and each data point depicts a SEM≤10%. Each test compound was analyzed over 10-12 concentrations, and over a ˜500-fold concentration range.
(§1) Selected examples were tested in the MIF-CD74 binding assay. The data mentioned below represents a mean pIC50 value of multiple test results. It is understood that the data illustrated below may have reasonable variation depending on the specific conditions and procedures used by the person conducting the testing.

[3] = biological target: T2, MIF (Homo sapiens, UniProt P14174); experiment: MIF tautomerase assay using pHPP as substrate; format: biochemical; conditions: mean of multiple test results
T2 sequence (P14174 2-115 limits assumed): T1 sequence (P14174 2-115 limits assumed)
In short: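 Mean pIC50 derived from initial rates (absorbance progress-curve slopes) of MIF-catalyzed ketonic-to-enolic pHPP conversion, read as enol–borate complex. Reactions contained 1.5 mM substrate and 3 nM enzyme (final), 200 mM boric acid stock buffer, BSA and CHAPS, pH 6.0.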

[4] = tested on: BV2 cells; experiment: BV2 cell proliferation assay (CCK-8); format: cell-based; conditions: Mus musculus, BV-2, 48 h treatment, FIGS. 6-8, read-out: pIC50 BV2 cell proliferation (converted)
From the text: The assay measures the ability of a compound to inhibit cell proliferation using Cell Counting Kit-8 (CCK-8), which allows sensitive colorimetric assays for the determination of cell viability in cell proliferation and cytotoxicity assays. The highly water-soluble tetrazolium salt, WST-8, is reduced by dehydrogenase activities in cells to give a yellow-color formazan dye, which is soluble in the tissue culture media. The amount of the formazan dye, generated by the activities of dehydrogenases in cells, is directly proportional to the number of living cells.
The assay was performed based on the instruction of the manufacture (Dojindo Molecular Technologies Inc., Rockville, Md., USA). To start the assay, BV2 cells were seeded at a density of […] into 96-well plates and treated with test compounds, which were used at a top final assay concentration of 33.3 μM, diluted in assay medium with 1:3 dilutions to produce 10 point concentration responses, for 48 h. After incubation, the CCK-8 solution (10 μl) was added to each well of the plate and the plates were incubated in incubator at 37° C. for 3 h. Absorbance was recorded three times independently using a microplate reader (Bio-Rad Laboratories, Richmond, Calif., USA) at 450 nm.
as §1, with “BV2 cell proliferation” for “MIF-CD74 binding”

[5] = inhibition of the MIF enzyme in vitro, read-out: Tautomerase Inhibition pIC50 (converted)

| Structure (SMILES) | IC50 [3, 5] | also measured |
| --- | --- | --- |
| Nc1ccn([C@@H]2O[C@H](CO)[C@@H](O)C2(F)F)c(=O)n1 [Gemcitabine, gemcitabine] |  | breast cancer growth (tumor volume), combination [1]: Synergistically Inhibited Breast Cancer Growth |
| COc1ncccc1-n1cnc2c(C)nc(N3CCN(c4ccc(O)cc4)CC3)nc21 [Example 62, 4-(4-(9-(2-methoxypyridin-3-yl)-6-methyl-9H-purin-2-yl)piperazin-1-yl)phenol] | 0.01 to 0.0977 µM | IC50 [2]: 26.3 µM |
| Nc1nc(N2CCN(c3ccc(O)cc3)CC2)nc2c1ncn2-c1cccnc1 [Example 115, 4-(4-(6-amino-9-(pyridin-3-yl)-9H-purin-2-yl)piperazin-1-yl)phenol] | 0.1 to 0.977 µM | IC50 [2]: 2.61 µM |
| O=C(O)CCn1cnc2c(-n3ncc4ccccc43)nc(N3CCN(c4ccc(O)cc4)CC3)nc21 [Example 148, 4-(2-(4-(4-hydroxyphenyl)piperazin-1-yl)-6-(1H-indazol-1-yl)-9H-purin-9-yl)propanoic acid] | 0.01 to 0.0977 µM | IC50 [2]: 4.9 µM |
| Nc1nc(N2CCN(c3ccc(O)cc3)CC2)nc2c1ncn2-c1ccncc1 [Example 80, 4-(4-(6-amino-9-(pyridin-4-yl)-9H-purin-2-yl)piperazin-1-yl)phenol] | 0.01 to 0.0977 µM | IC50 [4]: 5.02 µM |
| COc1ccc2c(cnn2-c2nc(N3CCN(c4ccc(O)cc4)CC3)nc3c2ncn3CC(=O)O)c1 [Example 51, 2-(2-(4-(4-hydroxyphenyl)piperazin-1-yl)-6-(5-methoxy-1H-indazol-1-yl)-9H-purin-9-yl)acetic acid] | 0.01 to 0.0977 µM | IC50 [2]: 8.91 µM; IC50 ([3]; FIGS. 1-5, read-out: pIC50 MIF tautomerase activity (converted)): ≤ 0.1 µM |
| Nc1nc(N2CCN(c3ccc(O)cc3)CC2)nc2c1ncn2-c1cncnc1 [Example 81, 4-(4-(6-amino-9-(pyrimidin-5-yl)-9H-purin-2-yl)piperazin-1-yl)phenol] | 1 to 9.77 µM | IC50 [4]: 23.1 µM |
| Oc1ccc(N2CCN(c3nc(NCC4CC4)c4ncn(-c5cccnc5)c4n3)CC2)cc1 [Example 95, 4-(4-(6-((cyclopropylmethyl)amino)-9-(pyridin-3-yl)-9H-purin-2-yl)piperazin-1-yl)phenol] | 1 to 9.77 µM | IC50 [4]: 6.92 µM |
| OCC(CO)n1cnc2c(N3CCc4ccccc43)nc(N3CCN(c4ccc(O)cc4)CC3)nc21 [Example 133, 2-(2-(4-(4-hydroxyphenyl)piperazin-1-yl)-6-(indolin-1-yl)-9H-purin-9-yl)propane-1,3-diol] | 0.1 to 0.977 µM |  |
| Oc1ccc(N2CCN(c3nc(-n4ncc5ccccc54)c4ncn(-c5cccnc5)c4n3)CC2)cc1 [Example 12, 4-(4-(6-(1H-indazol-1-yl)-9-(pyridin-3-yl)-9H-purin-2-yl)piperazin-1-yl)phenol] | 0.1 to 0.977 µM |  |
| Cc1cncc(-n2cnc3c(N)nc(N4CCN(c5ccc(O)cc5)CC4)nc32)c1 [Example 68, 4-(4-(6-amino-9-(5-methylpyridin-3-yl)-9H-purin-2-yl)piperazin-1-yl)phenol] | > 10 µM |  |
| O=C(O)C1CCN(c2nc(N3CCN(c4cccnc4)CC3)nc3c2ncn3-c2ccncc2)C1 (stereo not shown) [Example 181, 1-(2-(4-(pyridin-3-yl)piperazin-1-yl)-9-(pyridin-4-yl)-9H-purin-6-yl)pyrrolidine-3-carboxylic acid] | > 10 µM |  |
| Nc1nc(N2CCN(c3ccc(O)cc3)CC2)nc2c1ncn2C1CCCCO1 (stereo not shown) [Example 187, 4-(4-(6-amino-9-(tetrahydro-2H-pyran-2-yl)-9H-purin-2-yl)piperazin-1-yl)phenol] | > 10 µM |  |
| Cc1nc(N2CCN(c3ccc(O)cc3)CC2)nc2c1ncn2-c1cccnc1O [Example 60, 3-(2-(4-(4-hydroxyphenyl)piperazin-1-yl)-6-methyl-9H-purin-9-yl)pyridin-2-ol] | 0.1 to 0.977 µM |  |
| Cc1nc(N2CCN(c3ccc(O)cc3)CC2)nc2c1ncn2-c1cccnc1 [Example 229, 4-(4-(6-methyl-9-(pyridin-3-yl)-9H-purin-2-yl)piperazin-1-yl)phenol] | 0.01 to 0.0977 µM |  |
| Oc1ccc(N2CCN(c3nc(NCCc4ccccc4)c4ncn(-c5cccnc5)c4n3)CC2)cc1 [Example 91, 4-(4-(6-(phenethylamino)-9-(pyridin-3-yl)-9H-purin-2-yl)piperazin-1-yl)phenol] | 0.1 to 0.977 µM |  |
| CCOC(=O)Cn1cnc2c(-n3cnc4ccccc43)nc(N3CCN(c4ccc(O)cc4)CC3)nc21 [Example 40, ethyl 2-(6-(1H-benzo[d]imidazol-1-yl)-2-(4-(4-hydroxyphenyl)piperazin-1-yl)-9H-purin-9-yl)acetate] | 1 to 9.77 µM |  |

Reference: patent US20220144838A1, “Compounds as Inhibitors of Macrophage Migration Inhibitory Factor” (NANJING IMMUNOPHAGE BIOTECH CO., LTD., priority 2019, published 2022)
